Experiment: Adsorption on stent in plasma, fluorescence microscopy
Assay type: binding
Conditions: stent immersed in human plasma (37° C., 30 minutes), then 0.5 mM solution
Procedure: Next, in order to analyze the binding ability of the peptide of the present invention and the 4-branched peptide complex to a stent existing in plasma, whether or not the peptide of the present invention also binds to a stent that has been allowed to come into contact with plasma was examined.
That is, a stent was immersed in human plasma (37° C., 30 minutes), and was then removed from the plasma. The stent was then immersed in each peptide solution (0.5 mM) and a 4-branched peptide complex solution (0.5 mM) (37° C., 30 minutes). Thereafter, the stent was sufficiently rinsed with PBS, and was then observed under an upright fluorescence microscope.

binding to the surface of a stent in human plasma (fluorescence): does not bind to a Co—Cr stent
Substance: SEQ ID NO: 9: control peptide that does not bind to a Co—Cr stent; sequence not printed in the text (MKAHHSQLYPRH)

Source: patent publication US20220378948A1, “METAL-BINDING PEPTIDE, AND USE THEREOF” (The Jikei University, priority 2019, published 2022)
